What was measured:
Type in all cases: biochemical
[1] = target: T1, JAK3 (Homo sapiens, UniProt P52333); assay: experiment of inhibiting kinase activity (Caliper mobility shift assay), JAK3; settings: for inhibition at 0.1 µM: at 100 nM; for inhibition at 0.1 µM / inhibition at 0.01 µM: read-out: inhibition rate JAK3; for inhibition at 0.01 µM: at 10 nM
T1 sequence (P52333 1-1124): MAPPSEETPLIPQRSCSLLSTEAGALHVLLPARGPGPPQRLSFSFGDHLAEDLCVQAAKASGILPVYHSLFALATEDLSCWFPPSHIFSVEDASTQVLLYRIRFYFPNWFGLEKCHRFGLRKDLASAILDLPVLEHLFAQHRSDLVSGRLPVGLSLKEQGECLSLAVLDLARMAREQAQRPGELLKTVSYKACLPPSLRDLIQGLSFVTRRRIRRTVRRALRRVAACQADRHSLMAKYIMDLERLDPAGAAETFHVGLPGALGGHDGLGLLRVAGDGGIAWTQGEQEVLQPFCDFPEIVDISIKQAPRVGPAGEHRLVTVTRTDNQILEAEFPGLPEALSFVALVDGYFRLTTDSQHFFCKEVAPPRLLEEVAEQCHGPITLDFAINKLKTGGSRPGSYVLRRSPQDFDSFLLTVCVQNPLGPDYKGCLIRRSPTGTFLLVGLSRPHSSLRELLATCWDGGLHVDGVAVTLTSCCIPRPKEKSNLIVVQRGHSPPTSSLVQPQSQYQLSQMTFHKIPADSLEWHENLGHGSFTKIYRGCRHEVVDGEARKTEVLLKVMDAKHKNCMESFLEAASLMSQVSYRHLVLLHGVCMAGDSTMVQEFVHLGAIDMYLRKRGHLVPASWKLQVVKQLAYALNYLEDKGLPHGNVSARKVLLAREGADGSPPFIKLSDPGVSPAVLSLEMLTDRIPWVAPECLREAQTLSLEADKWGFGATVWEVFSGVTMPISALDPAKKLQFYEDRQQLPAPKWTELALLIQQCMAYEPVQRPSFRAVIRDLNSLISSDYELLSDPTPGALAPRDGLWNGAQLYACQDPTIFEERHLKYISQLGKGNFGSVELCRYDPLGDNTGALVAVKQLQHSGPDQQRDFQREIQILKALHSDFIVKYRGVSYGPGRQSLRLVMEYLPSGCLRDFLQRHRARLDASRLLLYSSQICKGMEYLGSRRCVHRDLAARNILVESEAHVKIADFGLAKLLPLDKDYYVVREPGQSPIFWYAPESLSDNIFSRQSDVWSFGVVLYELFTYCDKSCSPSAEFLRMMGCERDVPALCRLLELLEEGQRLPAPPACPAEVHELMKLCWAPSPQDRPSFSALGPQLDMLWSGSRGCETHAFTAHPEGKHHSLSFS
Experimental: (§1) The inhibition rates of tested compounds on JAK1, JAK2, JAK3, TYK2, CDK7, CDK9, EGFR (T790M) and LRRK2 kinases were measured. The test concentrations of the compounds were 10 nM and 100 nM, and the detection was performed by replicate wells. Alternatively, compounds were 3-fold serial diluted from 10 µM for 10 concentrations in replicate wells.
(§2) The inhibitory effects of the compounds on JAK1, JAK2, JAK3, CDK7 and CDK9 kinases were detected by the method of Caliper mobility shift assay. 250 nL of the compound at 100-fold final concentration was transferred to a destination plate 384-well-plate by using a liquid handler Echo 550. A kinase solution at 2.5-fold final concentration was prepared with 1×kinase buffer. 10 µL of the kinase solution with 2.5-fold final concentration was added to compound wells and positive control wells; and 10 µL of 1×kinase buffer was added to negative control wells. The mixture was centrifuged at 1000 rpm for 30 seconds and then incubated at room temperature for 10 minutes. A mixed solution of ATP and kinase substrate at 5/3-fold final concentration was prepared with 1×kinase buffer, and 15 µL of the mixed solution of ATP and substrate at 5/3-fold final concentration was added to start the reaction. The 384-well plate was centrifuged at 1000 rpm for 30 seconds, shaked and mixed evenly, then incubated at room temperature for a corresponding time. 30 µL of stop solution was added to stop the kinase reaction, the mixture was centrifuged at 1000 rpm for 30 seconds, and shaked and mixed evenly. The conversion rate was read by Caliper EZ Reader. The conversion inhibition rate%=(average positive control conversion rate%-sample conversion rate%)/(average positive control conversion rate%-average negative control conversion rate%). Where negative control wells represent the conversion readings of the background well of kinase buffer; and positive control wells represent the conversion readings of wells without compound inhibition. With the log value of concentration as the x axis and the percentage inhibition rate as the y axis, the dose-response curve was fitted by the log (inhibitor) vs. response-variable slope of the analyzing softwar GraphPad Prism 5, and the IC50 values of each compound on enzyme activity were obtained. Calculation formula is as follows: y=Bottom+(Top-Bottom)/(1+10^((LogIC50-x)×hillslope)), where x is logarithm of inhibitor concentration; and Y is % inhibition rate.

[2] = target: JAK2 (Homo sapiens, UniProt O60674); assay: experiment of inhibiting kinase activity (Caliper mobility shift assay), JAK2; settings: for inhibition at 0.01 µM: at 10 nM; for inhibition at 0.01 µM / inhibition at 0.1 µM: read-out: inhibition rate JAK2; for inhibition at 0.1 µM: at 100 nM; for IC50: kinase activity assay, Table 3
Experimental: as §1, §2

[3] = target: JAK1 (Homo sapiens, UniProt P23458); assay: experiment of inhibiting kinase activity (Caliper mobility shift assay), JAK1; settings: read-out: inhibition rate JAK1; for inhibition at 0.1 µM: at 100 nM; for inhibition at 0.01 µM: at 10 nM
Chain of JAK1 (P23458 whole entry): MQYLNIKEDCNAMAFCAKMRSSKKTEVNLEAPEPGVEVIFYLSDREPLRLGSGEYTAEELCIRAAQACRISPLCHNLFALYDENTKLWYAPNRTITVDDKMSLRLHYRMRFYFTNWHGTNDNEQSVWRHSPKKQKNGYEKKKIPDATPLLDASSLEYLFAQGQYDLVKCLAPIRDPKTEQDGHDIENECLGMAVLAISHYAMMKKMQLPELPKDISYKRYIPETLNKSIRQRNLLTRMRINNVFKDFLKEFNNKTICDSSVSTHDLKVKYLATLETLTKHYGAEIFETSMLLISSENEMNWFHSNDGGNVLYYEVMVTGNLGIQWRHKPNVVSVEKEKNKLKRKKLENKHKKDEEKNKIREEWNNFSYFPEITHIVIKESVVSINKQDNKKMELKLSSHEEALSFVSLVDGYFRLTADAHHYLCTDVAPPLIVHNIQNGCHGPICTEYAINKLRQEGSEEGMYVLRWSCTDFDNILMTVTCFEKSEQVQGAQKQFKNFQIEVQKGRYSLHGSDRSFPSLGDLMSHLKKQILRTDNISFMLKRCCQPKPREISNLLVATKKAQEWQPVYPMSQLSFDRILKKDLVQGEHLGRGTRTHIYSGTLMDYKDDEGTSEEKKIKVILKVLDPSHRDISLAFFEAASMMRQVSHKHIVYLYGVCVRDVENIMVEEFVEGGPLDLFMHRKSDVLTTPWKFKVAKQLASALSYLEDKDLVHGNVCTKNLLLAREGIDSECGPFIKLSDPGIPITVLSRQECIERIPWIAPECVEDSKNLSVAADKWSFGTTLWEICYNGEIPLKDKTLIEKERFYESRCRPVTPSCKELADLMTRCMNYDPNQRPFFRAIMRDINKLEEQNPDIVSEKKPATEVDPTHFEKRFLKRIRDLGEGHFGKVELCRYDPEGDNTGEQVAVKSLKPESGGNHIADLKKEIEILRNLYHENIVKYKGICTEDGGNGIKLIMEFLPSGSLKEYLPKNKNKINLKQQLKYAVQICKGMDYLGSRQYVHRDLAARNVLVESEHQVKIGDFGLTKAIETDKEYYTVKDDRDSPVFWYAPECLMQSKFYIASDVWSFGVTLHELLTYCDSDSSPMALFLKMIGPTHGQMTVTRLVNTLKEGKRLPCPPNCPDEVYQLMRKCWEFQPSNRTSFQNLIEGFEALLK
Experimental: as §1, §2

[4] = target: LRRK2 (Homo sapiens, UniProt Q5S007); assay: experiment of inhibiting kinase activity, LRRK2; settings: for inhibition at 0.1 µM: at 100 nM; for inhibition at 0.1 µM / inhibition at 0.01 µM: read-out: inhibition rate LRRK2; for IC50: kinase activity assay, Table 3; for inhibition at 0.01 µM: at 10 nM
Chain of LRRK2 (Q5S007 whole entry): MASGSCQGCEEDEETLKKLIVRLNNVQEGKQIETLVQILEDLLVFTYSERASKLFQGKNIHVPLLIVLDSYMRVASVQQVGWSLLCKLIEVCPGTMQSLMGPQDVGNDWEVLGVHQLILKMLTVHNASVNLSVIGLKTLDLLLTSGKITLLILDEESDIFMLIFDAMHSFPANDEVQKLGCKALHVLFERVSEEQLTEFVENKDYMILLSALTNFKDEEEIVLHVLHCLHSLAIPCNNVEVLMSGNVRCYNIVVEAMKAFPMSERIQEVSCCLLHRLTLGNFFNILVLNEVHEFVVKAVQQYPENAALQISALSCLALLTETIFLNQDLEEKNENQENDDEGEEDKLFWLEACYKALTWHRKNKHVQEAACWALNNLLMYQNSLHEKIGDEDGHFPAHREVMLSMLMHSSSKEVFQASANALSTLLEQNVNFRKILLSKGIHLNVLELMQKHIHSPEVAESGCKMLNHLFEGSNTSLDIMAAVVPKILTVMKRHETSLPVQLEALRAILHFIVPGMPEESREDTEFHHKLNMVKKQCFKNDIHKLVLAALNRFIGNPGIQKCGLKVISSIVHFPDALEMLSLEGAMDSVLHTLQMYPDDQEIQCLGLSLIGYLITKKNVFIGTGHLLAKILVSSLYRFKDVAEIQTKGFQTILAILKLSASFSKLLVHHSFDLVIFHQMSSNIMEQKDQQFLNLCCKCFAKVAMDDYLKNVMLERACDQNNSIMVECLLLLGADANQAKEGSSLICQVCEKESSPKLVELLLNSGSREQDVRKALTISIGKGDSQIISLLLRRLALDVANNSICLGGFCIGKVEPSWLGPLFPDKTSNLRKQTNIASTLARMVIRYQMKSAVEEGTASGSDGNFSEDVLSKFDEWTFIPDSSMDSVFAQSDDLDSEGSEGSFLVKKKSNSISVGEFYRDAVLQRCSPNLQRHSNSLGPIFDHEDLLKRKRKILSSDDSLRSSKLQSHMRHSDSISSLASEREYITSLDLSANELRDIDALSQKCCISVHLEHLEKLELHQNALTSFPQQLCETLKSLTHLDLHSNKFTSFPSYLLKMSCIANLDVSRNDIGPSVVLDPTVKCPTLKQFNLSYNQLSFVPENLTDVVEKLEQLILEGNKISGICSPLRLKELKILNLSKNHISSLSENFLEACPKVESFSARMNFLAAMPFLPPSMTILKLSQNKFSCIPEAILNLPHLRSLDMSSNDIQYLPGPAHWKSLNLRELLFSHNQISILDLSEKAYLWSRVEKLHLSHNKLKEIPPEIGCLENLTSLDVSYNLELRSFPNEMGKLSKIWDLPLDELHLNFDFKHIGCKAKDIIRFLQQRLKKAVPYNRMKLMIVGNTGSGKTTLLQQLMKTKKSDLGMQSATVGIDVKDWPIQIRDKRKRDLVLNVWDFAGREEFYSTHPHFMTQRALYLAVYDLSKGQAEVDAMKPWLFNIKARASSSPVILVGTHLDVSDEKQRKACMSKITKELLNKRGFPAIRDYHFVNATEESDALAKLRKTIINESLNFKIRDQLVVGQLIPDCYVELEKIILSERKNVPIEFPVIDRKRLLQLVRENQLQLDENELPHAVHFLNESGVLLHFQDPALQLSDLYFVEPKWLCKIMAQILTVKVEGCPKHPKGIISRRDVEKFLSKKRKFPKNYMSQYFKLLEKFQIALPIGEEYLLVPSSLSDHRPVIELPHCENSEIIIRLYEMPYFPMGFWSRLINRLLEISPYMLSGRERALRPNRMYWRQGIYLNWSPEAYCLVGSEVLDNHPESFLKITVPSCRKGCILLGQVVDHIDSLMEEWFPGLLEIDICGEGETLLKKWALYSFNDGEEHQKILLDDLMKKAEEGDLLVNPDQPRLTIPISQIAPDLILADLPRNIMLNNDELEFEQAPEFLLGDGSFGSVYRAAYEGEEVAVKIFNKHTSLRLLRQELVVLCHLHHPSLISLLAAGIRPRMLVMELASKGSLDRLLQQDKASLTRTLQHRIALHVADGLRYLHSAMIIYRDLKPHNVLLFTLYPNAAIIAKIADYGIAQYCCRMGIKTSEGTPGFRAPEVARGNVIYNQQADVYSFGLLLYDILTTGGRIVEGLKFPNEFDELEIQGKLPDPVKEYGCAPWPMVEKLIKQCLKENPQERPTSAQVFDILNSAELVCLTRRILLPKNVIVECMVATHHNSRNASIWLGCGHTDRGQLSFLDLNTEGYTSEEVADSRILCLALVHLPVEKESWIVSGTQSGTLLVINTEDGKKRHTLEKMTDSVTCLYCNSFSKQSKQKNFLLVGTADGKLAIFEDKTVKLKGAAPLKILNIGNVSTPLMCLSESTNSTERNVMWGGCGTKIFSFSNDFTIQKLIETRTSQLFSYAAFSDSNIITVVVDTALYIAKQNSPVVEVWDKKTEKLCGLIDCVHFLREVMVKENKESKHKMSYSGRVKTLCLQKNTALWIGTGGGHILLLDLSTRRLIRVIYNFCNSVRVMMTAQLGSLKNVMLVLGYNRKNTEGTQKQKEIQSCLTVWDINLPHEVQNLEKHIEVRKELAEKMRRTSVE
Experimental: as §1

[5] = target: TYK2 (Homo sapiens, UniProt P29597); assay: experiment of inhibiting kinase activity, TYK2; settings: read-out: inhibition rate TYK2; for inhibition at 0.1 µM: at 100 nM; for inhibition at 0.01 µM: at 10 nM
Chain of TYK2 (P29597 whole entry): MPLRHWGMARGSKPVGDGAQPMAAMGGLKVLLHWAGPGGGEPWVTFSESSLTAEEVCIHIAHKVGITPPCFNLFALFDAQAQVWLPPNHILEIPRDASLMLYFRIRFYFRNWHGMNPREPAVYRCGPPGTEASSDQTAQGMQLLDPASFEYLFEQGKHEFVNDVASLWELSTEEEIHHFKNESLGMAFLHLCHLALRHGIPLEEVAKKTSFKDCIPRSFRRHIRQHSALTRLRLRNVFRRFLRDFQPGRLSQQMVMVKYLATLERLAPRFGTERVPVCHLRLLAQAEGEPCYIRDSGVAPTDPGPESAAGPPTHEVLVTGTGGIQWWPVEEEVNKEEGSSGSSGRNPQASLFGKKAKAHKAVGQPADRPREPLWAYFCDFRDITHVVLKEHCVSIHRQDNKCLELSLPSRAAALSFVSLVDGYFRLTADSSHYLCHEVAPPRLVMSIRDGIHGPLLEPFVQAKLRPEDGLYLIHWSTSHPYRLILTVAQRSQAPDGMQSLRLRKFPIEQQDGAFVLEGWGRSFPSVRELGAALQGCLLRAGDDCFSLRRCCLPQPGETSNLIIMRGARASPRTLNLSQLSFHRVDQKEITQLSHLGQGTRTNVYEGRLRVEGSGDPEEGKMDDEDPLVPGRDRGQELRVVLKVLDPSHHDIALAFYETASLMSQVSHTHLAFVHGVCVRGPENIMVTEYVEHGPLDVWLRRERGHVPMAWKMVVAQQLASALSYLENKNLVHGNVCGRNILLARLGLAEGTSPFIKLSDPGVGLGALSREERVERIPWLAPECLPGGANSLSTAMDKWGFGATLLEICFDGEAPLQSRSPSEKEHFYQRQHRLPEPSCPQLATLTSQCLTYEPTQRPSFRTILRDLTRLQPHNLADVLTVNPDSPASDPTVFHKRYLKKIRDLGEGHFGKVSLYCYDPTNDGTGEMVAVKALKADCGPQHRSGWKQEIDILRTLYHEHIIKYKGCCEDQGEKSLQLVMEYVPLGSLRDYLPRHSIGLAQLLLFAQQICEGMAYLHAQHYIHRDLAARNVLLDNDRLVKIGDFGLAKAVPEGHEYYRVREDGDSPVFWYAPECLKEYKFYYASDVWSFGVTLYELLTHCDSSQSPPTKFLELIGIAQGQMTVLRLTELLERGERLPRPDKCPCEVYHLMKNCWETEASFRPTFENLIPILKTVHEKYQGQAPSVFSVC
Experimental: as §1

| Structure (SMILES) | inhibition at 0.01 µM [2] | inhibition at 0.1 µM [2] | IC50 [2] | inhibition at 0.1 µM [4] | inhibition at 0.01 µM [1] | inhibition at 0.01 µM [4] | also measured |
| --- | --- | --- | --- | --- | --- | --- | --- |
| CN1CCOc2ccc(Nc3nc(Nc4cccc(S(=O)(=O)NC(C)(C)C)c4)c4cc[nH]c4n3)cc2OCC1 [Example 21, N-(tert-butyl)-3-((2-((4-methyl-3,4,5,6-tetrahydro-2H-benzo[b][1,4,7]dioxazolin-9-yl)amino)-7H-pyrrolo[2,3-d]pyrimidin-4-yl)amino)benzenesulfonamide] | – | 40 to 79% | < 50 nM | 40 to 79% | – | – | IC50 [4]: 50 to 200 nM |
| CCS(=O)(=O)N1CC(CC#N)(n2cc(-c3nc(Nc4ccc5c(c4)OCCN(C)CCOCCO5)ncc3F)cn2)C1 [Example 43, 2-(1-(ethylsulfonyl)-3-(4-(5-fluoro-2-((7-methyl-2,3,6,7,8,9-hexahydro-5H-benzo[b][1,4,7]trioxa[10]azacyclododecan-12-yl)amino)pyrimidin-4-yl)-1H-pyrazol-1-yl)azetidin-3-yl) acetonitrile] | > 80% | – | – | – | 25 to 39% | 25 to 39% | inhibition at 0.01 µM [5]: 40 to 79% |
| CCS(=O)(=O)N1CC(CC#N)(n2cc(-c3nc(Nc4ccc5c(c4)OCCN(C)CCOCCO5)nc4[nH]ncc34)cn2)C1 [Example 50, 2-(1-(ethylsulfonyl)-3-(4-(6-((7-methyl-2,3,6,7,8,9-hexahydro-5H-benzo[b][1,4,7]trioxa[10]azacyclododecan-12-yl)amino)-1H-pyrazolo[3,4-d]pyrimidin-4-yl)-1H-pyrazol-1-y 1)azetidin-3-yl)acetonitrile] | > 80% | – | – | – | – | – | inhibition at 0.01 µM [5]: 25 to 39% |
| CN1CCOCCOc2cc(Nc3nc(Nc4ccccc4NS(C)(=O)=O)c4cc[nH]c4n3)ccc2OCC1 [Example 61, N-(2-((2-((7-methyl-2,3,6,7,8,9-hexahydro-5H-benzo[b][1,4,7]trioxa[10]azacyclododecan-13-yl)amino)-7H-pyrrolo[2,3-d]pyrimidin-4-yl)amino)phenyl)methanesulfonamide] | 40 to 79% | – | – | – | 40 to 79% | > 80% | IC50 [4]: < 50 nM |
| CN1CCOCCOc2cc(Nc3nc(-c4cnn(S(C)(=O)=O)c4)c4cc[nH]c4n3)ccc2OCC1 [Example 63, 7-methyl-N-(4-(1-(methylsulfonyl)-1H-pyrazol-4-yl)-7H-pyrrolo[2,3-d]pyrimidin-2-yl)-2,3,6,7,8,9-hexahydro-5H-benzo[b][1,4,7]trioxa[10]azacyclododecan-13-amine] | 40 to 79% | – | – | – | – | 40 to 79% | – |
| CN1CCOc2ccc(Nc3nc(-c4cnn(C5CN(S(C)(=O)=O)C5)c4)c4cc[nH]c4n3)cc2OCC1 [Example 69, 4-methyl-N-(4-(1-(1-(methylsulfonyl)azetidin-3-yl)-1H-pyrazol-4-yl)-7H-pyrrolo [2,3-d]pyrimidin-2-yl)-3,4,5,6-tetrahydro-2H-benzo[b][1,4,7]dioxazolin-9-amine] | 40 to 79% | – | – | – | 25 to 39% | 25 to 39% | – |
| CN1CCOc2ccc(Nc3ncc(Cl)c(Nc4cccc(NC(=O)[C@H]5C[C@H](N)C5)c4)n3)cc2OCC1 [Example 72, (1r,3r)-3-amino-N-(3-((5-chloro-2-((4-methyl-3,4,5,6-tetrahydro-2H-benzo[b][1,4,7]dioxazolin-9-yl)amino)pyrimidin-4-yl)amino)phenyl)cyclobutan-1-carboxamide] | 40 to 79% | – | – | – | – | – | inhibition at 0.01 µM [3]: 25 to 39% |
| CN1CCOc2ccc(Nc3nc(N4C[C@H]5CC[C@@H](C4)N5C(=O)C4CC4)c4cc[nH]c4n3)cc2OCC1 [Example 79, cyclopropyl((1R,5S)-3-(2-((4-methyl-3,4,5,6-tetrahydro-2H-benzo[b][1,4,7]dioxazolin-9-yl)amino)-7H-pyrrolo[2,3-d]pyrimidin-4-yl)-3,8-diazabicyclo[3.2.1]octan-8-yl)methanone] | > 80% | – | – | – | – | 40 to 79% | inhibition at 0.01 µM [5]: > 80%; inhibition at 0.01 µM [3]: 40 to 79% |

Second part, led by results:

| inhibition at 0.01 µM [2] | inhibition at 0.1 µM [2] | IC50 [2] | inhibition at 0.1 µM [4] | inhibition at 0.01 µM [1] | inhibition at 0.01 µM [4] | Structure (SMILES) | also measured |
| --- | --- | --- | --- | --- | --- | --- | --- |
| 40 to 79% | > 80% | < 50 nM | – | – | – | CN1CCOc2ccc(Nc3ncc(F)c(Nc4cccc(S(=O)(=O)NC(C)(C)C)c4)n3)cc2OCC1 [Example 1, N-(tert-butyl)-3-((5-fluoro-2-((4-methyl-3,4,5,6-tetrahydro-2H-benzo[b][1,4,7]dioxazolin-9-yl)amino)pyrimidin-4-yl)amino)benzsulfamide] | inhibition at 0.1 µM [1]: 25 to 39%; inhibition at 0.1 µM [3]: 25 to 39% |
| > 80% | > 80% | < 50 nM | 40 to 79% | – | – | CN1CCOCCOc2cc(Nc3ncc(F)c(Nc4cccc(S(=O)(=O)NC(C)(C)C)c4)n3)ccc2OCC1 [Example 9, N-(tert-butyl)-3-((5-fluoro-2-((7-methyl-2,3,6,7,8,9-hexahydro-5H-benzo[b][1,4,7]trioxa[10]azacyclododecan-13-yl)amino)pyrimidin-4-yl)amino)benzenesulfonamide] | inhibition at 0.1 µM [1]: 40 to 79%; inhibition at 0.1 µM [5]: 40 to 79%; inhibition at 0.1 µM [3]: 25 to 39% |
| – | 40 to 79% | < 50 nM | 40 to 79% | – | – | CN1CCOc2ccc(Nc3ncc(F)c(-c4cn(C)c5ccccc45)n3)cc2OCC1 [Example 13, N-(5-fluoro-4-(1-methyl-1H-indol-3-yl)pyrimidin-2-yl)-4-methyl-3,4,5,6-tetrahydro-2H -benzo[b][1,4,7]bisoxazolin-9-amine] | IC50 [4]: 50 to 200 nM; IC50 ([1]; kinase activity assay, Table 3): 50 to 200 nM; inhibition at 0.1 µM [5]: 25 to 39% |
| 40 to 79% | – | – | – | 25 to 39% | – | CN1CCOCCOc2ccc(Nc3ncc(F)c(-c4cn(C)c5ccccc45)n3)cc2OCC1 [Example 41, N-(5-fluoro-4-(1-methyl-1H-indol-3-yl)pyrimidin-2-yl)-7-methyl-2,3,6,7,8,9-hexahydro-5H-benzo[b][1,4,7]trioxa[10]azacyclododecan-12-amine] | – |
| – | 25 to 39% | – | > 80% | – | – | CNc1nc(Nc2ccc3c(c2)OCCN(C)CCO3)nc2[nH]ccc12 [Example 64, N^4-methyl-N^2-(4-methyl-3,4,5,6-tetrahydro-2H-benzo[b][1,4,7]dioxazolin-9-yl)-7H-pyrrolo[2,3-d]pyrimidin-2,4-diamine] | – |
